In the assay the target is T1, human ME3 enzyme (Homo sapiens, UniProt Q16798).
T1 sequence (Q16798 1-604): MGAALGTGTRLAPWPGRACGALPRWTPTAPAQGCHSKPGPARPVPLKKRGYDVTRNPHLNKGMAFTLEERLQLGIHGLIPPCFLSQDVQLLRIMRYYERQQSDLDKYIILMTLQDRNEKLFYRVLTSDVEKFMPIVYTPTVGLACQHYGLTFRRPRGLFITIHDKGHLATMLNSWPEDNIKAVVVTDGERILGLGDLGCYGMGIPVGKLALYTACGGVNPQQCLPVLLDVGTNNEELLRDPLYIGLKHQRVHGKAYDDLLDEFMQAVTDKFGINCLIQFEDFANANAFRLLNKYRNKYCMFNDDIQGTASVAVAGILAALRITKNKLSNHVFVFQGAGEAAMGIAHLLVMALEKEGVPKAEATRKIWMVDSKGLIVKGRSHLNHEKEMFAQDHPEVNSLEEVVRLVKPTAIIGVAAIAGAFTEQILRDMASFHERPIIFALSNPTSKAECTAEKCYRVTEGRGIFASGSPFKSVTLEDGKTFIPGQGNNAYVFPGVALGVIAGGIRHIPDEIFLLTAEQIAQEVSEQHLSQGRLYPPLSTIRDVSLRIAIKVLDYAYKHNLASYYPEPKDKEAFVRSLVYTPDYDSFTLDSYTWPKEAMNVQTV
The experiment in a line: ME3 inhibition assay (diaphorase/resazurin coupled fluorescence). The class given is biochemical. Particulars: 10 μM compound concentration; read-out: Malic Enzyme 3 % inhibition (10 μM). Here is the method: ME3 catalyzes the oxidative decarboxylation of malate to pyruvate with conversion of the co-factor β-NADP+ to NADPH. In the fluorescence assay, a coupled reaction is set up wherein an enzyme, Diaphorase, utilizes NADPH generated by ME3, to convert the dye resazurin to a fluorescent molecule resorufin.
The enzyme activity inhibition assay is set up in a 200 μL final reaction volume in a 96-well plate. As per the experimental design, 2 μL of the test compounds at 100× the desired concentration (10 μM) in DMSO were added to the respective wells with 178 μL of assay buffer (50 mM Tris-HCl pH 7.5, 10 mM MnCl2, 3 mM L-malate, 50 μM Resazurin and 0.025 mg/ml Diapharose). The 96-well plate was incubated on a plate shaker at room temperature for 15 minutes protected from light. The well contents were gently mixed by adding 10 μL of 20 nM human ME3 enzyme to the wells and the plate was incubated on a shaker at room temperature for 5 minutes protected from light. Suitable enzyme only and no enzyme controls were included in the experiment. The enzyme reaction was started by adding 10 μL of 1 mM D-NADP+. The reaction was gently mixed and the plate was initially left on a shaker at room temperature for ˜7 minutes protected from light. Later, the plate was incubated without shaking at room temperature for 3 hours. At the end of 3 hours, the fluorescence of the wells was measured at excitation 540 nm and emission 600 nm.
The inhibition is the drop in the measured response relative to a control, in per cent. With `O=C(c1ccc(Br)s1)N1CCN(c2ccc(O)cn2)CC1` [I.87, (5-Bromo-thiophen-2-yl)-[4-(5-hydroxy-pyridin-2-yl)-piperazin-1-yl]-methanone], the inhibition at 10 µM was greater than 90%. Take `COCCOc1ccc2[nH]cc(C(=O)N3CCN(c4ccc(O)cc4)CC3)c2c1` [I.10, [4-(4-Hydroxy-phenyl)-piperazin-1-yl]-[5-(2-methoxy-ethoxy)-1H-indol-3-yl]-methanone]: the inhibition at 10 µM is greater than 90%.

For `O=C(O)c1ccccc1C(=O)N1CCN(c2ccc(O)cn2)CC1` [I.111, 2-[4-(5-Hydroxy-pyridin-2-yl)-piperazine-1-carbonyl]-benzoic acid], the inhibition at 10 µM is greater than 90%. As to `COc1ccccc1CCC(=O)N1CCN(c2ccc(O)cn2)CC1` [I.109, 1-[4-(5-Hydroxy-pyridin-2-yl)-piperazin-1-yl]-3-(2-methoxy-phenyl)-propan-1-one], the inhibition at 10 µM was greater than 90%.

As to `O=C(CCC(c1ccccc1)c1ccccc1)N1CCN(c2ccc(O)cn2)CC1` [I.112, 1-[4-(5-Hydroxy-2-pyridyl)-piperazin-1-yl]-4,4-diphenyl-butan-1-one], the inhibition at 10 µM was greater than 90%.

Turning to `O=C(/C=C/c1ccc(Cl)cc1)N1CCN(c2ccc(O)cn2)CC1` [I.78, (E)-3-(4-Chlorophenyl)-1-[4-(5-hydroxy-pyridin-2-yl)-piperazin-1-yl]-propenone], the inhibition at 10 µM is greater than 90%. On to `O=C(c1cc(Cl)nc(N2CCOCC2)c1)N1CCN(c2ccc(O)cc2)CC1` [I.36], for which the inhibition at 10 µM was greater than 90%.

For `O=C(c1ccnc(N2CCOCC2)c1)N1CCN(c2ccc(O)cc2)CC1` [I.35, [4-(4-Hydroxy-phenyl)-piperazin-1-yl]-(2-morpholino-4-pyridyl)-methanone], the inhibition at 10 µM is greater than 90%. The figure for `CCCCOc1ccc(CCC(=O)N2CCN(c3ccc(O)cc3)CC2)cc1` [I.13, 3-(4-Butoxy-phenyl)-1-[4-(4-hydroxy-phenyl)-piperazin-1-yl]-propan-1-one] is greater than 90%; for `O=C(Cc1ccc(F)cc1F)N1CCN(c2ccc(O)cn2)CC1` [I.91, 2-(2,4-Difluoro-phenyl)-1-[4-(5-hydroxy-pyridine-2-yl)-piperazin-1-yl]-ethanone] it is greater than 90%. For `O=C(c1cc2ccccc2c2ccccc12)N1CCN(c2ccc(O)cc2)CC1` [I.22, [4-(4-Hydroxy-phenyl)-piperazin-1-yl]-phenanthren-9-yl-methanone], the inhibition at 10 µM was greater than 90%. `CC(=O)N[C@@H](C(=O)N1CCN(c2ccc(O)cc2)CC1)c1ccccc1` [I.19, N-{(1R)-2-[4-(4-Hydroxy-phenyl)-piperazin-1-yl]-2-oxo-1-phenyl-ethyl}acet-amide]: the inhibition at 10 µM is greater than 90%. To `O=C(C(=O)N1CCN(c2ccc(O)cc2)CC1)c1ccccc1` [I.17, 1-[4-(4-hydroxyphenyl)-piperazin-1-yl]-2-phenyl-ethane-1,2-dione] belongs greater than 90%; to `CCCCOc1ccc(/C=C/C(=O)N2CCN(c3ccc(O)cc3)CC2)cc1` [I.12, 3-(4-Butoxy-phenyl)-1-[4-(4-hydroxy-phenyl)-piperazin-1-yl]-propenone], greater than 90%. Turning to `CN(C)c1ccc(CCC(=O)N2CCN(c3ccc(O)cn3)CC2)cc1` [I.108, 3-(4-Dimethyl-aminophenyl)-[4-(5-hydroxy-pyridin-2-yl)-piperazin-1-yl]-propan-1-one], the inhibition at 10 µM was greater than 90%.

On to `Cc1ccc(CCC(=O)N2CCN(c3ccc(O)cn3)CC2)cc1` [I.110, 1-[4-(5-Hydroxy-pyridin-2-yl)-piperazin-1-yl]-3-p-tolyl-propan-1-one], for which the inhibition at 10 µM is greater than 90%. The figure for `O=C(C1CC1)N1CCN(c2ccc(O)cn2)CC1` [I.119, Cyclopropyl-[4-(5-hydroxy-2-pyridyl)-piperazin-1-yl]methanone] is greater than 90%. The figure for `CC(=O)N[C@@H](Cc1ccccc1)C(=O)N1CCN(c2ccc(O)cc2)CC1` [I.16, N-{(1S)-1-Benzyl-2-[4-(4-hydroxy-phenyl)-piperazin-1-yl]-2-oxoethyl}-acetamide] is greater than 90%.

These data come from patent US11225480B2, “Malic enzyme inhibitors” (SUN PHARMA ADVANCED RESEARCH COMPANY LTD, priority 2019, dated 2022).
